Active and inactive are the calls of the source.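 Rule for the calls: active = compounds whose mean EC50, the dose giving half the maximal reporter activation, is at or below a set limit; inactive = the rest.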
target: CHO-CHOP luciferase reporter, UPR activation, luminescence; experiment: CHOP reporter induction, apoptotic UPR branch – CHO-CHOP cells, luciferase luminescence, confirmation (AID 489024);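 note: compounds added alone to reporter cells with no tunicamycin stress co-treatment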

Row | SMILES | EC50
1 | Cc1cccc2sc(NC(=O)c3cc(S(=O)(=O)N(C)C)ccc3N3CCCC3)nc12 | inactive
2 | O=C(CSc1cccc2cccnc12)N/N=C/c1cccnc1 | 7.64 µM
3 | CCOC(=O)c1c(CSC(=N)N)n(-c2ccc(C)cc2)c2cc(Br)c(OC(C)=O)cc12 | > 80 µM (inactive)
4 | COc1cccc2sc(Nc3nc(-c4ccccn4)cs3)nc12 | 1.65 µM
5 | Cc1c(C#N)c(NC(=O)CCl)n(Cc2ccc(F)cc2)c1C | 16 µM
6 | COc1ccc(/C=C2\CN(Cc3ccccc3)C/C(=C\c3ccc(OC)c(O)c3)C2=O)cc1O | 2.75 µM
7 | O=[N+]([O-])c1cc(O)c2ncccc2c1 | 13.3 µM
8 | CC(C)(C)c1ccc(/C=C(\c2nc3ccccc3[nH]2)S(=O)(=O)c2ccccc2)cc1 | 7.17 µM
9 | Cc1ccc(NC(=O)COc2ccc(/C=C3/SC(=Nc4ccccc4)N(Cc4cccnc4)C3=O)cc2)cc1 | inactive
10 | C/C(=N\NC(=O)c1ccc(Cl)c(Cl)c1)c1ccccn1 | 3.26 µM
11 | O=C(CCN1C(=O)/C(=C\c2ccccc2F)SC1=S)N1CCCCC1 | > 80 µM (inactive)
12 | O=C(Nc1ccc(-c2nc3cc(NC(=O)c4cccs4)ccc3o2)cc1)c1cccs1 | 6 µM
13 | Cc1cc(-n2c(C)cc(C(=O)CCl)c2C)no1 | 7.75 µM
14 | CCOC(=O)N1CCN(Cc2cc(Cl)c3cccnc3c2O)CC1 | inactive
15 | Cc1cc(NC(=O)c2cc(-c3ccccn3)nc3ccc(Br)cc23)no1 | > 80 µM (inactive)
16 | Cc1ccc(Cc2cnc(NC(=O)/C(C#N)=C/c3ccc(-c4cccc([N+](=O)[O-])c4)o3)s2)cc1 | 14.7 µM
17 | O=C(C#Cc1cccc([N+](=O)[O-])c1)c1ccccc1 | 8.96 µM
18 | COc1cc(/C=C2\COC/C(=C\c3ccc(O)c(OC)c3)C2=O)ccc1O | 6.34 µM
19 | Cc1ccc(S(=O)(=O)N(C(=O)c2ccncc2)c2ccc(OC(=O)c3ccncc3)c3ccccc23)c(C)c1 | 16.7 µM
20 | O=C(NC1CCCC1)C(c1ccc(F)cc1)N(Cc1ccc(F)cc1)C(=O)CCl (stereo unspecified) | 9.26 µM
21 | COc1cccc(-n2c(SCC(=O)N3CCc4ccccc43)nnc2-c2c[nH]c3ccccc23)c1 | > 80 µM (inactive)
22 | N#CC1(C#N)COC23CCCCC2C1(C#N)C(=N)O3 (stereo unspecified) | 19.3 µM

Row | SMILES | EC50
23 | Cc1cccc(CS(=O)(=O)c2ncc(Cl)c(C(=O)Nc3ccc(F)cc3)n2)c1 | 9.1 µM
24 | Cn1c(-c2cccc(OCc3ccccc3)c2)nc2c1c(=O)[nH]c(=O)n2Cc1ccccc1 | 13.8 µM
25 | CC(=O)c1cccc(N=Cc2c(O)c3ccccc3oc2=O)c1 | 9.66 µM
26 | C=C1C(=O)C=C[C@]2(C)C[C@@H]3OC(=O)[C@](C)(O)[C@H]3C[C@@H]12 | 12.7 µM
27 | O=C1NC(=O)N(Cc2ccccc2Cl)C(=O)/C1=C/c1cccs1 | 15.9 µM
28 | Cc1ccc(N2C(=O)NC(=O)/C(=C/C=C/c3ccco3)C2=O)cc1 | 11.5 µM
29 | Cc1ccc2nc(-c3ccc(O)c(O)c3)cn2c1 | 3.6 µM
30 | CCOC(=O)C1=C(Cc2ccc(Cl)cc2)C(=O)c2ccccc2C1=O | > 80 µM (inactive)
31 | COc1ccc(NS(=O)(=O)c2ccc3ccccc3c2)c2ncccc12 | 9.28 µM
32 | O=C(NC(=S)Nc1ccc(NC(=O)c2cccs2)cc1)c1cc2ccccc2o1 | inactive
33 | C/C(=N\NC(=O)c1cccc(Br)c1)c1ccccn1 | 2.36 µM
34 | S=C1SCN(Cc2ccccn2)CN1Cc1ccco1 | > 80 µM (inactive)
35 | CC(C)c1cccc(-c2ccc3c(c2)S(=O)(=O)c2cccc(C(=O)NCc4ccccc4Cl)c2C3=O)c1 | 4.51 µM
36 | O=C(Nc1nc2c(F)cc(F)cc2s1)c1ccccn1 | 6.35 µM
37 | O=C(N/N=C/c1ccccn1)c1ccc(Cl)c(Cl)c1 | 2.93 µM
38 | CC(=O)c1cccc(NC(=O)CSc2ncc(C(=O)Nc3ccccc3)c(=O)n2C)c1 | 7.28 µM
39 | C/C(=N\NC(=O)C(C)Oc1ccc([N+](=O)[O-])cc1)c1ccccn1 (stereo unspecified) | 10.1 µM
40 | CCCC[C@@H](C)C[C@@H](C)C(=O)N(C)[C@@H](CC(C)C)C(=O)N[C@H](C(=O)N(C)[C@H](C(=O)N1C[C@@H](O)C[C@H]1C(=O)N1C(=O)C=C[C@@H]1C)C(C)C)C(C)OC(C)=O (stereo partly specified) | 10.4 µM
41 | CCCCCC(=O)Nc1ccc(C(=O)N/N=C/c2ccc([N+](=O)[O-])cc2)cc1 | inactive
42 | CCCCNC1C(CC)C(CCC)C(C#N)(C#N)C1(C#N)C#N (stereo unspecified) | > 80 µM (inactive)
43 | Cc1ccc(F)cc1N=Cc1c(O)c2ccccc2oc1=O | 6.17 µM
44 | S=C1SCN(CC2CC2)CN1CC1CC1 | inactive

Row | SMILES | EC50
45 | O=C(NCc1ccccc1Cl)c1cccc2c1C(=O)c1ccc(-c3ccc(OC(F)(F)F)cc3)cc1S2(=O)=O | > 80 µM (inactive)
46 | Oc1ccc(CN2CCC(Cc3ccccc3)CC2)c2cccnc12 | 5.4 µM
47 | Cc1ccc2[nH]cc(C(=O)CCl)c2c1 | 7.64 µM
48 | CCOC(=O)c1ccc(N=C2C(=S)N(c3ccc(C(=O)OCC)cc3)C(=N)N2/N=C/c2ccccc2)cc1 | > 80 µM (inactive)
49 | O=C(NC1CCCC1)C(c1ccc(Cl)cc1)N(Cc1ccc(F)cc1)C(=O)CCl (stereo unspecified) | 8.34 µM
50 | Nc1nnnn1/N=C/C(Br)=C/c1ccccc1 | 2.22 µM
51 | C/C(=N\NC(=O)c1ccc(Cl)cc1)c1ccccn1 | 8.06 µM
52 | O=C(COc1ccc2ccccc2c1)N1CCN(Cc2c[nH]c3ccccc23)CC1 | 13.6 µM
53 | CC(=O)/C(=N\Nc1ccc(Cl)cc1Cl)Sc1cccc2cccnc12 | 3.26 µM
54 | N#CC12COC3(CCCCC3C1(C#N)C#N)OC2=N (stereo unspecified) | > 80 µM (inactive)
55 | Cc1cc(N2CCN(c3ccc([N+](=O)[O-])c4cccnc34)CC2)c2ccccc2n1 | inactive
56 | COc1ccc(N2C(=O)/C(=C/C=C/c3ccccc3[N+](=O)[O-])C(=O)NC2=S)cc1 | > 80 µM (inactive)
57 | CC1=NN(c2cccc(C(=O)O)c2)C(=O)/C1=C\C=C/c1ccccc1 | 11.7 µM
58 | O=C(Nc1nc(-c2ccc3ccccc3c2)cs1)c1ccc(N2C(=O)CCC2=O)cc1 | > 80 µM (inactive)
59 | O=[N+]([O-])c1ccc(C=Nc2ccc(Cl)cc2Cl)s1 | 13.9 µM
60 | Cc1ccc(/C=C2\CCC3=C2OC(N)=C(C#N)C3c2ccc(C)cc2)cc1 (stereo unspecified) | 4.55 µM
61 | Cc1ccc(-c2nc(SCC(=O)Nc3cc(C)on3)c3c(=O)n(C)c(=O)n(C)c3n2)cc1 | > 80 µM (inactive)
62 | O=C1Nc2ccccc2/C1=C/C(=O)c1cccs1 | 14.4 µM
63 | CC1=NOC(=O)/C1=C\c1ccc(-c2ccc(Cl)cc2Cl)o1 | 13.5 µM
64 | c1ccc(CSC2=NNC(c3ccccn3)S2)cc1 (stereo unspecified) | 4.29 µM
65 | O=[N+]([O-])/C=C\c1ccc(N2CCOCC2)cc1 | 17.5 µM
66 | O=C(/C=C/c1ccco1)NC(=S)Nc1ccc(O)c(-c2nc3ccccc3s2)c1 | 11.8 µM

Row | SMILES | EC50
67 | Cc1ccc2nc(-c3ccc(NC(=S)NC4CC(C)(C)NC(C)(C)C4)cc3)sc2c1 | 6.95 µM
68 | CC(=O)Oc1ccc(OC(C)=O)c(SCCCCCN2CCOCC2)c1 | 16.1 µM
69 | Cn1c(SCC(=O)NCC2CCCO2)ncc(C(=O)Nc2ccc(Cl)cc2)c1=O (stereo unspecified) | 16 µM
70 | COCc1ccc(O)c2ncccc12 | 15.1 µM
71 | Oc1ccc2ccccc2c1N=Nc1ccccn1 | 8.55 µM
72 | Cc1ccc(-c2csc3ncnc(Sc4nnc(CN5CCCCCC5=O)o4)c23)cc1 | 17.3 µM
73 | COc1ccc(N=c2oc3ccc(OC)cc3cc2-c2nc3ccccc3[nH]2)cc1 | 11.7 µM
74 | O=S1(=O)Nc2c(ccc3cccnc23)-c2ccccc21 | 3.42 µM
75 | S=C(Nc1ccccn1)c1ccccn1 | 10.4 µM
76 | Cc1ccc(C)c(NC(=O)/C(C#N)=C/c2cn(CC(=O)NCc3ccco3)c3ccccc23)c1 | > 80 µM (inactive)
77 | C[C@@H]1CN([C@H](C)CO)C(=O)c2cc(NC(=O)Nc3ccc(C(F)(F)F)cc3)ccc2O[C@H]1CN(C)Cc1ccc(Cl)c(Cl)c1 | > 80 µM (inactive)
78 | Cc1ccc(-c2cc(-c3ccc(C)cc3)[n+](-c3ccccc3)c(-c3ccc(C)cc3)c2)cc1 | 3.77 µM
79 | CCOC(=O)C(=Cc1ccc(OCc2ccc([N+](=O)[O-])cc2)c(OC)c1)C(=O)OCC | 6.51 µM
80 | COc1ccc(OC)c(N=Cc2c(O)c3ccccc3oc2=O)c1 | 7.55 µM
81 | Cc1ccc(CS(=O)(=O)c2ncc(Cl)c(C(=O)Nc3ccc(OC(F)F)cc3)n2)cc1 | > 80 µM (inactive)
82 | O=C(CCl)Nc1cc(S(=O)(=O)N2CCCCCC2)ccc1Cl | > 80 µM (inactive)
83 | O=S(=O)(Nc1cccc2cccnc12)c1ccc(S(=O)(=O)N2CCCC2)cc1 | 13.9 µM
84 | CC(=O)Nc1ccc(N=Cc2c(O)c(C(=O)Nc3ccccc3)cc3ccccc23)cc1 | inactive
85 | COC(=O)c1cc(=O)n(CCc2ccc(OC)cc2)c(=Nc2ccc(F)c(Cl)c2)s1 | inactive
86 | O=C(NCCc1ccccc1)c1coc(=O)c(Br)c1 | 7.83 µM
87 | Oc1ccc(CN2CCN(c3ccccc3)CC2)c2cccnc12 | inactive
88 | Oc1ccc(/C=N/Nc2ccnc3cc(Cl)ccc23)cc1O | 6.62 µM

Row | SMILES | EC50
89 | O=C(CSc1ccccn1)Nc1nonc1[N+](=O)[O-] | 19.1 µM
90 | COC(=O)C1=C(C)N(c2ccc(C)c(C)c2)/C(=C/c2ccco2)C1=O | 8.53 µM
91 | Cc1ccc(C(=O)/C=C/C(=O)c2ccc(C)cc2)cc1 | 8.35 µM
92 | N#CC1=C(N)OC2=C(CC/C2=C\c2ccccc2)C1c1ccccc1 (stereo unspecified) | 6.51 µM
93 | O=C(O)CC1CCC(=C(Cl)Cl)C1 (stereo unspecified) | > 80 µM (inactive)
94 | COc1cc(/C=C/C(=O)N2C(=O)c3cccc(N)c3C2=O)cc(OC)c1OC | > 80 µM (inactive)
95 | O=C(N/N=C/c1cccc([N+](=O)[O-])c1)c1cc2c(ccc3ccccc32)o1 | > 80 µM (inactive)
96 | COc1ccc2c(C(=O)CCl)c[nH]c2c1 | 6.36 µM
97 | Cc1cc(C)nc(S/C=C/C(=O)c2ccccc2)n1 | 6.72 µM
98 | CC(C)(C)C(=O)OCc1nc(-c2ccc(O)c(O)c2)cs1 | 1.38 µM
99 | CCOC(=O)C(=CNc1nc(-c2ccccc2)c(C(=O)Nc2ccc(-c3ccccc3)cc2)s1)C(=O)OCC | inactive
100 | COc1ccc(-n2nc(C#N)c(Cl)cc2=O)cc1 | 3.23 µM
101 | COc1cc(C(=O)Nc2nc(-c3ccc(Cl)cc3)c(C)s2)ccc1OCC(=O)Nc1ccc(F)cc1 | 13.3 µM
102 | Cc1ccc(-n2nc3cc(C)c(NC(=S)NC(=O)/C=C/c4ccco4)cc3n2)cc1 | 16.2 µM
103 | CC(C)[C@H](NC(=O)OC(C)(C)C)c1nnc(S(=O)(=O)Cc2c(F)cccc2Cl)o1 | > 80 µM (inactive)
104 | CC(C)(C)C1=CC(=O)C(=O)C(C(C)(C)C)=C1 | 7.59 µM
105 | CC1(C)CCSC(/C=C/c2ccccc2)=N1 | > 80 µM (inactive)
106 | Oc1cc(-c2cccnc2)cc2cccnc12 | inactive

Reference: PubChem BioAssay AID489024 (Sanford-Burnham Center for Chemical Genomics, 2010)
